Experimental findings from patent US5332734A, “Oxazinone derivative” (Japan Tobacco, Incorporated, priority 1991, dated 1994) are described below.

Test [1] has as its system neutrophil infiltration into carrageenin-induced air pouch inflammation. The experiment in a line: Suppressing neutrophil infiltration into carrageenin-induced air pouch inflammation. It counts as in vivo, SD series male rats. The note with it: 17 μmol into air pouch, 5 hours; for Cell Infiltration Capability: control = 100. How it is done: Test: 3 Effect of the Invented Compound for Suppressing Neutrophil Infiltration into carrageenin-induced Air Pouch Inflammation
Groups of SD series male rats (5 five weeks old and each weighing 110 to 130 g) were used in this experiment, each group consisting of five rats. In the first step, an air bladder was formed on the back of the rat by hypodermic injection of 8 ml of air while anesthetizing the rat with either. Twenty-four hours later, 5 ml of a physiological saline containing 1% of carrageenin manufactured by Wako K.K. was injected into the air pouch. Promptly after the carrageenin injection, a solution prepared by dissolving the test material (compound of the present invention) in 200 μl of DMSO (dimethylsulfoxide) was administered to the air pouch on the back of the rat.
Five hours later, the rat was killed and the blood was released therefrom. Then, 5 ml of PBS containing 10 mM of EDTA (ethylenediamine tetraacetate) was injected into the air pouch. The exudate within the air bladder was washed and, then, recovered. A predetermined amount of the recovered exudate was measured by a colter counter so as to count the number of infiltrated cells.
The effect of the test material for suppressing the cell infiltration into the carrageenin induced inflammation was determined by the formula given below, in which the value obtained by subtracting the number of infiltrated cells in the experiment in which carrageenin was not administered from the number of infiltrated cells in the reference group in which a medicine was not administered was set at 100:
= 100 - (U - V)/(W - V) × 100
S: Cell infiltration capability in the case of containing the compound of the present invention;
T: Cell infiltration capability in the case of not containing the compound of the present invention;
U: The number of infiltrated cells in the case of administering the compound of the present invention and carrageenin;
V: The number of infiltrated cells in the case of not adding carrageenin; and
W: The number of infiltrated cells in the case of administering carrageenin only.

The target of test [2] is T1, bovine pancreatic trypsin (TRY) (Bos taurus, UniProt P00760).
T1 construct: purchased Sigma Inc; host or cells: bovine pancreas (by its name)
T1 sequence (P00760 24-246): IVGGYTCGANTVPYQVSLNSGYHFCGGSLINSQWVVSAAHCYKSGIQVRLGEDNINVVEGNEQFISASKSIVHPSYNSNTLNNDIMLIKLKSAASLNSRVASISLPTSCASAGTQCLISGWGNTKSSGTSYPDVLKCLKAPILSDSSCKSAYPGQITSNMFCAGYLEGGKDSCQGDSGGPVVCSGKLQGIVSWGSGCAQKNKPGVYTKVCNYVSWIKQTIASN
The experiment in a line: TRY inhibitory activity. It counts as biochemical. The note with it: TRY 25 nM, substrate 1.0 mM, pH 7.5. As to the method:
(§1) Inhibotory activities of the oxadinone derivative of the present invention against human leukocyte elastase (HLE), human sputum elastase (HSE), human cathepsin G (HCG), bovine pancreatic α-chymotrypsin (CYT) and bovine pancreatic trypsin (TRY) were measured as follows:
(5) Measurement of TRY Inhibitory Activity
a) Enzyme Preparing Method Bought from Sigma Inc.
Employed was a measuring method similar to that described previously in conjunction with the measurement of the HLE inhibiting activity, except that used was a buffer solution of pH 7.5. The final concentrations of TRY and the synthetic substrate (Z-Arg-pNA; FUNAKOSHI) in the solution of the enzyme reaction were 25 nM and 1.0 mM, respectively.

A further test has as its target T2, human cathepsin G (HCG) (Homo sapiens, UniProt P08311).
T2 construct: purchased Cosmo Bio Inc
T2 sequence (P08311 21-255): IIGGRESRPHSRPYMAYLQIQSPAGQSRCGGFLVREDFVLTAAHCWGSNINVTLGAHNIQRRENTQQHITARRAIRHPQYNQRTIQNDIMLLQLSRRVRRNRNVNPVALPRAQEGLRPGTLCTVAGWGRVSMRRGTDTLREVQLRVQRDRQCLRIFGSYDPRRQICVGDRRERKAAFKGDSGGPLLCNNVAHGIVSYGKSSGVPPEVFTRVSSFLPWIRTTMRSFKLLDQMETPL
The experiment in a line: HCG inhibitory activity. It is filed as biochemical. The note with it: HCG 50 nM, substrate 0.5 mM, pH 7.5. As to the method:
as §1
(3) Measurement of HCG Inhibitory Activity
a) Enzyme Preparing Method Bought from Cosmo Bio Inc.
Employed was a measuring method similar to that described previously in conjunction with the measurement of the HLE inhibiting activity, except that used was a buffer solution of pH 7.5. The final concentrations of HCG and the synthetic substrate (Ac-Ala-Ala-Pro-Phe-pNA; FUNAKOSHI) in the solution of the enzyme reaction were 50 nM and 0.5 mM, respectively.

Structures are written as SMILES. pIC50: −log10 of the molar value. A value given as a limit tells only on which side of the number the result lay.

The pIC50 is −log10 of the IC50, conventionally taken in molar units. Low readings indicate a high IC50, high ones a low IC50. In the case of `Cc1cccc2nc([C@H](CC(C)C)NC(=O)OCC3c4ccccc4-c4ccccc43)oc(=O)c12` [Compound 2, 2-{1(S)-[(9-fluorenylmethoxycarbonyl)amino]-3-methylbutyl}-5-methyl-4H-3,1-benzoxazin-4-one], the “Rate (%) of Suppressing Cell Infiltration” value in test [1] is given as 24%. Also, the “Cell Infiltration Capability” value in test [1] stood at 76. The pIC50 was below 5.18 in test [2] and below 5.27 on human cathepsin G (HCG).
For the compound `Cc1cccc2nc([C@@H](NC(=O)OCC3c4ccccc4-c4ccccc43)C(C)C)oc(=O)c12` [Compound 1, 2-{1(S)-[(9-fluorenylmethoxycarbonyl)amino]-2-methylpropyl}-5-methyl-4H-3,1-benzoxazin-4-one], in test [1], the “Rate (%) of Suppressing Cell Infiltration” value was found to be 38%. In addition, the “Cell Infiltration Capability” value in test [1] came to 62. Besides, the pIC50 in test [2] was below 5.16; against human cathepsin G (HCG) it was below 5.26.
